# Active and inactive are the calls of the source.
# Assays:
# Cytochrome P450 2C9 = Cytochrome P450 2C9 (Homo sapiens, UniProt P11712)
# Cytochrome P450 2C19 = Cytochrome P450 2C19 (Homo sapiens, UniProt P33261); assay: Cytochrome panel assay with activity outcomes. Panel member name: p450-cyp2c19 Compounds with AC50 equal or less than 10 uM are considered active; format: functional
# [1] = molecular target: T1, Corticotropin-releasing factor receptor 2/Corticotropin-releasing factor-binding protein (Homo sapiens, UniProt P24387+Q13324); assay: Dose Response confirmation of uHTS hits for small molecule antagonists of the CRF-binding protein and CRF-R2 receptor complex.; format: functional; details: read-out: IC50_Mean
# T1 sequence (Q13324 whole entry): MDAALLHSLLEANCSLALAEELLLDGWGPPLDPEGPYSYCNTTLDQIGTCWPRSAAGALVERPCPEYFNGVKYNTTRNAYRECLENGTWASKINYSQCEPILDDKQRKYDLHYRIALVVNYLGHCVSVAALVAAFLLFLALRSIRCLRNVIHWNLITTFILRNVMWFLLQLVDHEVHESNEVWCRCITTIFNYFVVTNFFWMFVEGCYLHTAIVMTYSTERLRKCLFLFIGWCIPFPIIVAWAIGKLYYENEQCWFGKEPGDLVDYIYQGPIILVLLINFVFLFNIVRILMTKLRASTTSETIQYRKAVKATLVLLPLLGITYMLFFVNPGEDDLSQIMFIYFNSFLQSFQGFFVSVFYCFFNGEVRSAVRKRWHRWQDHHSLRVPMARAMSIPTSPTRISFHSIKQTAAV
# T1 sequence (P24387 whole entry): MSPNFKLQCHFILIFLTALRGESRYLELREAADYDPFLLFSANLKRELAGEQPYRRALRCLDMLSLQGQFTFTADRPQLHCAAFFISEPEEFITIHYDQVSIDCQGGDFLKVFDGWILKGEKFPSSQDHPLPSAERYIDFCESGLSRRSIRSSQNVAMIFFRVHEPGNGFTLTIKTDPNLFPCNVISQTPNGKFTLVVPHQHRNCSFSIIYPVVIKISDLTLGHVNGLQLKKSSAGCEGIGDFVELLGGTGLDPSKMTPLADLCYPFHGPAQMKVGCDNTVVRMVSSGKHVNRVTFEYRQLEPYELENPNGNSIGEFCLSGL
# [2] = molecular target: T1, Corticotropin-releasing factor receptor 2/Corticotropin-releasing factor-binding protein; assay: activators of CRF receptor 2 with binding protein – uHTS hits, confirmation (AID 602473); format: functional; details: read-out: EC50_Mean
# cells [3] = format: functional, cell-based
# cells [4] = format: functional, cell-based; remark: listed apart in the source
# [5] = HepG2 cell cytotoxicity, dose response, cytotoxicity control for Shn3 inhibitor project, CellTiter-Glo, cherry-picked (AID 624134); format: functional, cell-based
# [6] = Shn3 3'UTR reporter inhibitors, dose response, cell-based, Clone20 osteoblasts, firefly luciferase, cherry-picked (AID 624132); format: functional;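 note: firefly luciferase luminescence from reporter carrying the Shn3 3'UTR in osteoblasts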
# [7] = control 3'UTR Renilla luciferase suppression, dose response, counter-screen for Shn3 inhibitor project, cell-based, Clone20-Shn3RL, cherry-picked (AID 624133); format: functional
# [8] = HEK293T cytotoxicity, dose response, cytotoxicity control for miR-122 modulator project, cell-based, inhibitor set, cherry-pick, set 2 (AID 720697); format: functional
# [9] = inhibitors of intracellular T. cruzi replication, confirmation, NIH3T3 host cells, beta-gal luminescence (AID 2044); format: functional, cell-based;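 note: intracellular parasites grown in NIH/3T3 mouse fibroblasts as host cells; luminescent beta-galactosidase reporter signal from transgenic T. cruzi replicating inside host cells; inhibitors lower the luminescence signal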
# [10] = cytotoxicity toward NIH3T3 fibroblasts, dose response, counter-screen, cell-based, ATP luminescence, mouse fibroblasts (AID 2010); format: functional;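 note: cells exposed to compound for about 90 hours before reading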
# [11] = miR-122 activators in hepatoma reporter cells, dose response, cell-based, Huh7 psiCHECK-miR122, Renilla luciferase, cherry-picked (AID 651956); format: functional;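 note: huh7 hepatoma cells stably carrying a psiCHECK-2 miR-122 sensor plasmid; renilla luciferase signal reporting endogenous miR-122 activity after 48 h compound exposure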
# [12] = HEK293T cytotoxicity, dose response, cytotoxicity control for miR-122 modulator project, cell-based, activator set, cherry-pick (AID 720690); format: functional;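 note: HEK293T human cells scored for general mammalian cytotoxicity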
# [13] = LGR2 antagonists, dose response, cell-based, HEK293, CRE-luciferase reporter, cherry pick, set 2 (AID 743343); format: functional;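 note: transfected cells were stimulated with diluted bursicon conditioned medium after compound addition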
# [14] = HepG2 cell cytotoxicity, dose response, cytotoxicity control, plate reader, cherry-pick, antagonist series (AID 743416); format: functional, cell-based
# [15] = MC4R antagonists, dose response, counter-screen for LGR2 antagonist project, cell-based, plate reader, cherry pick (AID 743444); format: functional;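 note: transfected HEK 293 cells stimulated with alpha-MSH peptide; potency of inhibitors of the alpha-MSH evoked signal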
# Cytochrome P450 2C19, sequence (P33261 whole entry): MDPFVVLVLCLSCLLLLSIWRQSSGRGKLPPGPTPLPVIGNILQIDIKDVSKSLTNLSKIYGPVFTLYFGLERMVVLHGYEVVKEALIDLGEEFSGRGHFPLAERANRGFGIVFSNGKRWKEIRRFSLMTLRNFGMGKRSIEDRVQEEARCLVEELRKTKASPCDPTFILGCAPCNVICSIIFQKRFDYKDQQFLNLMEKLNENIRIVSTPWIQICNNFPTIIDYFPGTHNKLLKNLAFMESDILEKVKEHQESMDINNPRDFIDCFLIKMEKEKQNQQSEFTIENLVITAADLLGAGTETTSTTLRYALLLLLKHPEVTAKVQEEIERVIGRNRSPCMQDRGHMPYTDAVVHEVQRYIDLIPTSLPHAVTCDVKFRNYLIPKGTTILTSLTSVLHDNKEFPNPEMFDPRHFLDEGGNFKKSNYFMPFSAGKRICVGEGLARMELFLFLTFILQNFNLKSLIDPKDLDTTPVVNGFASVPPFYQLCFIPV
# Cytochrome P450 2C9, sequence (P11712 whole entry): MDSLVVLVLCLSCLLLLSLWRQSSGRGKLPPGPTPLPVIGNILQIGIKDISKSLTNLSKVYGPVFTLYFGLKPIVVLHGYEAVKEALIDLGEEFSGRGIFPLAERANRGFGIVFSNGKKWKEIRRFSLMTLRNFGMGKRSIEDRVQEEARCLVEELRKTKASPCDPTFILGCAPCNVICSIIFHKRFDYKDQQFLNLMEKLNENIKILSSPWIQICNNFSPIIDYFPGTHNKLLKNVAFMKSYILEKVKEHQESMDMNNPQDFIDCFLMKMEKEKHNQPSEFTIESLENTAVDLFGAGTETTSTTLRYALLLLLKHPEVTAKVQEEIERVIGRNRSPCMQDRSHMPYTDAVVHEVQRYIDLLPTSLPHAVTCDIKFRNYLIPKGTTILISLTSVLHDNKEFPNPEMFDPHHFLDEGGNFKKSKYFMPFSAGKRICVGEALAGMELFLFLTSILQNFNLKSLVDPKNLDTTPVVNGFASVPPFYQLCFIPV
compound,measurement,setting,value
Cc1cc2nc(C)n(CCCN)c2cc1C.Cl,AC50,Cytochrome P450 2C9,inconclusive
same,AC50,Cytochrome P450 2C19,inconclusive
same,IC50,[1],> 47.1 µM (inactive)
same,EC50,[2],> 53 µM (inactive)
O=C(CN1CCC(C(=O)c2ccc(Cl)cc2)CC1)Nc1ccc2c(c1)OCCO2,EC50,cells [3],> 350 µM (not active)
same,EC50,cells [4],> 350 µM (not active)
CCCSCCCNC(=O)c1ccccc1NC(=O)C1=CSCCO1,EC50,cells [3],297 µM (active)
same,EC50,cells [4],> 350 µM (not active)
CC(C)CC(N)c1csc(NC(=O)c2cc(C(C)(C)C)nn2Cc2ccccc2)n1 (stereo unspecified),AC50,[5],8.75 µM (active)
same,AC50,[6],4.85 µM (active)
same,AC50,[7],20.8 µM (active)
COc1ccc(CN2CCOC2=O)cc1OC,AC50,[8],9.25 µM (active)
CC1=Nc2nnnn2C(c2cccnc2)/C1=C(\O)OC1CCCCC1 (stereo unspecified),EC50,[9],1.79 µM (active)
same,EC50,[10],> 60 µM (not active)
same,AC50,[5],> 70 µM (inactive)
same,AC50,[6],3.23 µM (active)
same,AC50,[7],3.92 µM (active)
C/C=C/c1ccc([C@H]2[C@@H](CNC(=O)CC)N(Cc3ccccn3)[C@H]2CO)cc1,AC50,[8],0.454 µM (active)
C[C@@H]1CN([C@H](C)CO)S(=O)(=O)c2ccc(C#Cc3ccccc3F)cc2O[C@@H]1CN(C)C(=O)Cc1ccncc1,AC50,[11],5.11 µM (active)
same,AC50,[12],32.4 µM (active)
C[C@@H]1CCCCO[C@@H](CN(C)Cc2ccc3c(c2)OCO3)[C@H](C)CN([C@H](C)CO)C(=O)c2cc(NC(=O)Nc3ccc(C(F)(F)F)cc3)ccc2O1,AC50,[11],5.55 µM (active)
same,AC50,[8],8.08 µM (active)
same,AC50,[12],9.09 µM (active)
C[C@H](CO)N1C[C@H](C)[C@@H](CN(C)Cc2ccc(Oc3ccccc3)cc2)Oc2ncc(-c3cncnc3)cc2C1=O,AC50,[11],26 µM (active)
same,AC50,[8],0.511 µM (active)
CC(=O)N1CCCC(c2cc(C(=O)Nc3ccccc3)no2)C1 (stereo unspecified),AC50,[13],2.13 µM (active)
same,AC50,[14],> 52 µM (inactive)
same,AC50,[15],1.98 µM (active)
COc1ccc(NC(=O)N(C)C[C@H]2Oc3cc(C#CCC(C)C)ccc3S(=O)(=O)N([C@@H](C)CO)C[C@H]2C)cc1,AC50,[8],6.46 µM (active)
same,AC50,[12],27 µM (active)
CN1C(=O)c2cc(NC(=O)Nc3ccccc3F)ccc2OC[C@@H]2O[C@@H](CC(=O)NCc3ccc(-c4ccccc4)cc3)CC[C@@H]21,AC50,[12],47.9 µM (active)

# — ChEMBL document CHEMBL1201862, “PubChem BioAssay data set” (2004)
